# In publication PMC7714830, “Quantification of the Cannabinoid Type 1 Receptor Availability in the Mouse Brain” (Frontiers in Neuroanatomy, 2020):
# pIC50: −log10 of the molar value. Like-named read-outs stand apart in the source and are kept apart here.
# Assays:
# CB1 receptor [1] = target: CB1 receptor; design: method as in Burns et al., 2007; Liu et al., 2007; conditions: ref Burns et al., 2007, Liu et al., read-out: affinity to the CB1 receptor, IC50; cited from earlier work
# CB1 receptor [2] = tested on: CB1 receptor; design: method as in Herance et al., 2011; conditions: knock-out n = 4, wild-type n = 4; period 40–60 min; ref Herance et al., 2011; cited from earlier work
# CB1 receptor [3] = tested on: CB1 receptor; design: method as in Horti et al., 2006; conditions: ref Horti et al., 2006; cited from earlier work
# CB1 receptor [4] = target: T1, CB1 receptor (Mus musculus, UniProt P47746); experiment: [18F]MK-9470 small animal PET of the mouse brain (%ID/ml, 40–60 min); assay type: in vivo, mouse (C57BL/6J); design: Six male C57BL/6J mice; from tissue; host or cells: brain of living male C57BL/6J mice (in vivo PET); conditions: for [^18F]MK-9470 %ID/ml: PET 40–60 min, mean ± SD
# Excerpt: Six male C57BL/6J mice (21.5–28.1 g, 6–9 weeks of age; obtained from the Translational Animal Research Center—TARC of the University Medical Center Mainz) were examined. All applicable international, national, and/or institutional guidelines for the care and use of animals were followed. This study was approved by the respective state authorities (Landesuntersuchungsamt Rheinland-Pfalz).
# Isoflurane inhalation anesthesia (2% isoflurane vaporized in 60% oxygen) was used to immobilize the mice, which were positioned in the small animal PET scanner in the headfirst prone position. A venous catheter, which was placed in one of the tail veins, was used to inject [^18F]MK-9470. Together with the injection, a 60-min PET measurement was started with a Focus 120 small animal PET scanner (Siemens/CTI, Knoxville, TN, USA). This small animal PET scanner has lutetium oxyorthosilicate detectors having a size of 1.5 × 1.5 × 10 mm^3 for coincidence detection of photons (time window: 6 ns). The resolution in the center of the field of view is ≤1.4 mm. As part of the quality control, a detector normalization and cross-calibration with a dose calibrator (VDC 404, Veenstra Instruments, Joure, Netherlands) were performed regularly. The PET data acquisition took place in the list mode data format.
# The list-mode data, acquired for this study, were sorted into a sinogram matrix with frames of 3 × 20, 3 × 60, 3 × 120, 10 × 300 s (=19 frames). The data were reconstructed with filtered back-projection [ramp filter (cut-off = 0.5)] into a 128 × 128 matrix with 95 slices of 0.8 mm thickness (pixel size 0.87 × 0.87 mm^2). Corrections included detector dead time and random coincidences, which yielded images in the unit Bq/ml.
# PET data were co-registered to the T2-weighted magnetic resonance image (MRI) template provided by the PMOD software (version 4.0, Zurich, Switzerland) based on the work of Ma et al. ([2005]) and Mirrione et al. ([2007]). […] The outcome parameter was calculated as %ID/ml = mean value of the radioactivity concentration (in the unit Bq/ml)/injected radioactivity (in the unit Bq) × 100% and included the 40–60 min acquisition interval for individual brain regions. All results were reported as mean ± standard deviation. A two-tailed paired t-test was used to compare means for VOI of different receptor densities and thus, four main comparisons were defined before the analyses: cerebellum vs. pons, caudate putamen vs. pons, cerebellum vs. hippocampus, and hippocampus vs. pons. The global significance level was αglobal = 0.05 and a Bonferroni correction yielded a local significance level of αlocal = 0.0125.
# To facilitate the comparison between (quantitative, continuous) PET data and (qualitative) IHC data, the data were classified into four categories, namely no (−), low (+), mean (++) and high (+++) accumulation of the radioactivity concentration or immunohistochemical staining. The IHC data were classified based on visual inspections of the results and their descriptions in the literature sources. Statements such as “little or no,” “few” or “void” led to a classification of “–.” Statements like “low,” “some” or “weak” were classified as “+.” Descriptions like “network of CB1-immunoreactive fibers” or “intensely CB1 receptor-ir fiber meshwork” led to a rating of “++” and statements like “dense meshwork of fibers” or “very high concentration of CB1-immunoreactivity” were rated as “+++.” The PET data were classified based on the outcome parameter %ID/ml, ranging from mean values of 1.5–2.6 %ID/ml, and were subdivided into three categories. That is, signals within the interval 1.5–1.8 %ID/ml lead to a rating of “+.” Parameters within the interval 1.8–2.2 %ID/ml were rated as “++” and signals within the interval 2.2–2.6 %ID/ml were classified as “+++.” As there was no brain region devoid of a PET signal, the category “−” was omitted here.
# [5] = design: method as in Burns et al., 2007; Liu et al., 2007; conditions: ref Burns et al., 2007, Liu et al.; cited from earlier work
# CB1 receptor [6] = experiment: [18F]MK-9470 PET in a CB1 receptor knock-out mouse and a wild-type mouse (re-analysis of the whole time course); assay type: in vivo
# Protocol: (§1) Two mice, a CB1 receptor-deficient mouse, and a wild-type mouse, whose data acquisition is described in Miederer et al. ([2013]), were re-analyzed.
# (§2) (A) Left: CB1 receptor knock-out mouse, right: wild-type mouse. Positron emission tomography (PET) images were summed from 40 to 60 min [injected radioactivity: 8.5 MBq (CB1^−/−) and 8.0 MBq (CB1^+/+), anaesthesia: 0.2 ml xylazine/ketamine, data acquisition: 60 min]. (B) Standardized volumes-of-interest (VOI) were drawn for the whole mouse brains (n = 2). Extracted radioactivity concentrations were normalized to the maximum radioactivity concentration in the wild-type mouse.
# CB1 receptor [7] = target: T1, CB1 receptor; experiment: as above; assay type: in vivo; design: Two mice, a CB1 receptor-deficient mouse, and a wild-type mouse; from tissue; host or cells: brain of a living wild-type mouse; the CB1-/- mouse serves as the receptor-free control; conditions: CB1 knock-out vs wild-type mouse
# Protocol: as §1, §2
# CB1 receptor [8] = conditions: human brain; ref Burns et al., 2007; cited from earlier work
# CB1 receptor [9] = conditions: cited from earlier work
# [10] = Tectum mesencephalic: colliculus inferior
# [11] = Tectum mesencephalic: colliculus superior
# T1 sequence (P47746 whole entry): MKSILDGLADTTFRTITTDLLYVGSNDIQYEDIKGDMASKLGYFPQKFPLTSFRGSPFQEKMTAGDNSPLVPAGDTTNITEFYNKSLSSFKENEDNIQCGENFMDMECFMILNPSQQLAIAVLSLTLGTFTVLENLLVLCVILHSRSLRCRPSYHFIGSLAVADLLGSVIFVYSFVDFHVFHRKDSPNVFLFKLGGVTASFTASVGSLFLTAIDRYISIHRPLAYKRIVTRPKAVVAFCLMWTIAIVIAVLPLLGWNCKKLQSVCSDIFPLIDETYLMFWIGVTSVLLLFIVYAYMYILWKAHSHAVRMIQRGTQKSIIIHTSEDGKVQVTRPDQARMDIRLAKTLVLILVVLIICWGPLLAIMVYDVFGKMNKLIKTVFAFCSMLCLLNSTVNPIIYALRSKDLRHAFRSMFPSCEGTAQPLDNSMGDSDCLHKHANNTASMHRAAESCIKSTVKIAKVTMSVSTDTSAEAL
structure (smiles),measurement,setting,value
"Cc1ccc(OC(C)(C)C(=O)N[C@@H](C)[C@@H](Cc2ccc(OCCF)cc2)c2cccc(C#N)c2)nc1 [[^18F]MK-9470, N-(1S,2S)-2–(3-cyanophenyl)-3–[4-(2-[^18F]fluoroethoxy)phenyl]-1-methylpropyl-2-methyl-2-[(5-methylpyridin-2-yl)oxy]propanamide]",pIC50,CB1 receptor [1],9.15
"[11CH3]Oc1ccc(-c2c(C#N)c(C(=O)NN3CCCCC3)nn2-c2ccc(Cl)cc2Cl)cc1 [[^11C]OMAR, 1–(2,4-dichlorophenyl)-4-cyano-5–(4-[^11C]methoxyphenyl)-N-(piperidin-1-yl)-1H-pyrazole-3-carboxamide]",lower uptake in knock-out mice as compared to wild-type mice,CB1 receptor [2],50%
same,%ID/ml values in mouse brain regions,CB1 receptor [3],2.5–6 %ID/ml
"Cc1ccc(OC(C)(C)C(=O)N[C@@H](C)[C@@H](Cc2ccc(OCC[18F])cc2)c2cccc(C#N)c2)nc1 [[^18F]MK-9470, N-(1S,2S)-2–(3-cyanophenyl)-3–[4-(2-[^18F]fluoroethoxy)phenyl]-1-methylpropyl-2-methyl-2-[(5-methylpyridin-2-yl)oxy]propanamide]",Category of [^18F]MK-9470 accumulation,CB1 receptor [4]; Amygdala,++ (Parameters within the interval 1.8–2.2 %ID/ml were rated as “++”)
same,[^18F]MK-9470 %ID/ml,CB1 receptor [4]; Amygdala,1.87 ± 0.38 %ID/ml
same,Category of [^18F]MK-9470 accumulation,CB1 receptor [4]; Basal forebrain septum,++ (Parameters within the interval 1.8–2.2 %ID/ml were rated as “++”)
same,[^18F]MK-9470 %ID/ml,CB1 receptor [4]; Basal forebrain septum,2.07 ± 0.29 %ID/ml
same,Category of [^18F]MK-9470 accumulation,CB1 receptor [4]; Basal ganglia: caudate putamen,+++ (signals within the interval 2.2–2.6 %ID/ml were classified as “+++.”)
same,[^18F]MK-9470 %ID/ml,CB1 receptor [4]; Basal ganglia: caudate putamen,2.33 ± 0.40 %ID/ml
same,Category of [^18F]MK-9470 accumulation,CB1 receptor [4]; Brain stem,++ (Parameters within the interval 1.8–2.2 %ID/ml were rated as “++”)
same,[^18F]MK-9470 %ID/ml,CB1 receptor [4]; Brain stem,1.95 ± 0.36 %ID/ml
same,Category of [^18F]MK-9470 accumulation,CB1 receptor [4]; Cerebellum (whole region),++ (Parameters within the interval 1.8–2.2 %ID/ml were rated as “++”)
same,[^18F]MK-9470 %ID/ml,CB1 receptor [4]; Cerebellum (whole region),2.11 ± 0.40 %ID/ml
same,Category of [^18F]MK-9470 accumulation,CB1 receptor [4]; Cerebral cortex,++ (Parameters within the interval 1.8–2.2 %ID/ml were rated as “++”)
same,[^18F]MK-9470 %ID/ml,CB1 receptor [4]; Cerebral cortex,1.92 ± 0.32 %ID/ml
same,Category of [^18F]MK-9470 accumulation,CB1 receptor [4]; Hippocampus,+++ (signals within the interval 2.2–2.6 %ID/ml were classified as “+++.”)
same,[^18F]MK-9470 %ID/ml,CB1 receptor [4]; Hippocampus,2.29 ± 0.41 %ID/ml
same,Category of [^18F]MK-9470 accumulation,CB1 receptor [4]; Hypothalamus,++ (Parameters within the interval 1.8–2.2 %ID/ml were rated as “++”)
same,[^18F]MK-9470 %ID/ml,CB1 receptor [4]; Hypothalamus,1.99 ± 0.34 %ID/ml
same,Category of [^18F]MK-9470 accumulation,CB1 receptor [4]; Mesencephalon (whole region),+++ (signals within the interval 2.2–2.6 %ID/ml were classified as “+++.”)
same,[^18F]MK-9470 %ID/ml,CB1 receptor [4]; Mesencephalon (whole region),2.41 ± 0.42 %ID/ml
same,Category of [^18F]MK-9470 accumulation,CB1 receptor [4]; Olfactory bulb,+ (signals within the interval 1.5–1.8 %ID/ml lead to a rating of “+.”)
same,[^18F]MK-9470 %ID/ml,CB1 receptor [4]; Olfactory bulb,1.47 ± 0.08 %ID/ml
same,Category of [^18F]MK-9470 accumulation,CB1 receptor [4]; Substantia grisea centralis,+++ (signals within the interval 2.2–2.6 %ID/ml were classified as “+++.”)
same,[^18F]MK-9470 %ID/ml,CB1 receptor [4]; Substantia grisea centralis (central gray),2.56 ± 0.39 %ID/ml
same,Category of [^18F]MK-9470 accumulation,CB1 receptor [4]; [10],+++ (signals within the interval 2.2–2.6 %ID/ml were classified as “+++.”)
same,[^18F]MK-9470 %ID/ml,CB1 receptor [4]; [10],2.48 ± 0.35 %ID/ml
same,Category of [^18F]MK-9470 accumulation,CB1 receptor [4]; [11],+++ (signals within the interval 2.2–2.6 %ID/ml were classified as “+++.”)
same,[^18F]MK-9470 %ID/ml,CB1 receptor [4]; [11],2.44 ± 0.37 %ID/ml
same,Category of [^18F]MK-9470 accumulation,CB1 receptor [4]; Thalamus,+++ (signals within the interval 2.2–2.6 %ID/ml were classified as “+++.”)
same,[^18F]MK-9470 %ID/ml,CB1 receptor [4]; Thalamus,2.34 ± 0.35 %ID/ml
same,Category of [^18F]MK-9470 accumulation,CB1 receptor [4]; Whole-brain,++ (Parameters within the interval 1.8–2.2 %ID/ml were rated as “++”)
same,[^18F]MK-9470 %ID/ml,CB1 receptor [4]; Whole-brain,2.19 ± 0.35 %ID/ml
same,range of mean values of %ID/ml over brain regions,"CB1 receptor [4]; all brain regions, 40–60 min",1.5–2.6 %ID/ml
same,coefficients of variation for all brain regions,CB1 receptor [4]; summed images 40–60 min,5–20%
same,kinetics in the mouse brain,"CB1 receptor [4]; whole brain time course, 60 min",slow kinetics
same,time of uptake into the mouse brain after injection,"CB1 receptor [4]; whole brain, i.v. tail vein",≤ 5 min
same,coefficient of variation of whole-brain radioactivity concentration,"CB1 receptor [4]; whole brain, interval from maximum to end of acquisition",approximately 12%
same,mean value of radioactivity concentration after reaching maximum,"CB1 receptor [4]; whole mouse brain, from maximum until the end of the acquisition (60 min)",approximately 2.2 %ID/ml
same,"lipophilicity, logD7.3",[5],4.7
same,"level of the unspecific signal in the CB1 receptor knock-out mouse, of the maximum signal measured in the wild-type mice","CB1 receptor [6]; whole brain VOI, n = 2",about 20%
same,"unspecific binding, of the signal present in a wild-type mouse","CB1 receptor [6]; whole brain, period of 40–60 min",approximately 20%
same,binding to CB1 receptors in the mouse brain,CB1 receptor [7],binds specifically
same,time to plateau after injection,CB1 receptor [8],approximately 120 min
same,time to plateau after injection,"CB1 receptor [9]; rat brain, ref Casteels et al., 2012",approximately 300 min
same,portion of the signal allocated to unspecific binding,"CB1 receptor [9]; rats, receptor blocking with rimonabant before PET, ref Miederer et al., 2013",58%
